Tests used:
[1] = system: SCPJU (Schoenoplectus juncoides, Japanese bulrush); test: Postemergence foliar-applied weed control, direct seeded rice, greenhouse (Example I); type: in vivo, Schoenoplectus juncoides (Roxb.) Palla; conditions: 21 DAA
From the text: (§1) Seeds or nutlets of the desired test plant species were planted in a soil matrix prepared by mixing a loam or sandy loam soil (e.g., 28.6 percent silt, 18.8 percent clay, and 52.6 percent sand, with a pH of about 5.8 and an organic matter content of about 1.8 percent) and calcareous grit in an 80 to 20 ratio. The soil matrix was contained in plastic pots with a volume of 1 quart and a surface area of 83.6 square centimeters (cm^2). When required to ensure good germination and healthy plants, a fungicide treatment and/or other chemical or physical treatment was applied. The plants were grown for 8-22 days in a greenhouse with an approximate 14 h photoperiod which was maintained at about 29° C. during the day and 26° C. during the night. Nutrients (Peters Excel® 15-5-15 5-Ca 2-Mg and iron chelate) were applied in the irrigation solution as needed and water was added on a regular basis. Supplemental lighting was provided with overhead metal halide 1000-Watt lamps as necessary. The plants were employed for testing when they reached the first through fourth true leaf stage.
Treatments consisted of the acid or esters of 4-amino-3-chloro-5-fluoro-6-(4-chloro-2-fluoro-3-methoxy-phenyl)pyridine-2-carboxylic acid (Compound A), each formulated as an SC, and various herbicidal components alone and in combination. Forms of compound A were applied on an acid equivalent basis. […]
(§2) Treatment requirements were calculated based upon the rates being tested, the concentration of active ingredient or acid equivalent in the formulation, and a 12 mL application volume at a rate of 187 L/ha.
For treatments comprised of formulated compounds, measured amounts of compounds were placed individually in 25 mL glass vials and diluted in a volume of 1.25% (v/v) Agri-Dex® crop oil concentrated to obtain 12× stock solutions. […]
For treatments comprised of formulated and technical compounds, weighed amounts of the technical materials were placed individually in 25 mL glass vials and dissolved in a volume of 97:3 v/v acetone/DMSO to obtain 12× stock solutions, and measured amounts of the formulated compounds were placed individually in 25 mL glass vials and diluted in a volume of 1.25% (v/v) crop oil concentrate to obtain 12× stock solutions. […]

[2] = system: MATCH (Chamomilla chamomilla, scented mayweed); test: Post-emergence foliar-applied weed control in cereal crops, greenhouse (Example III); type: in vivo, Chamomilla chamomilla (L.) Rydb.
Experimental: Seeds of the desired test plant species were planted in Sun Gro MetroMix® 306 planting mixture, which typically has a pH of 6.0 to 6.8 and an organic matter content of about 30 percent, in plastic pots with a surface area of 103.2 square centimeters (cm^2). When required to ensure good germination and healthy plants, a fungicide treatment and/or other chemical or physical treatment was applied. The plants were grown for 7-36 days in a greenhouse with an approximate 14 hour photoperiod which was maintained at about 18° C. during the day and 17° C. during the night. Nutrients and water were added on a regular basis and supplemental lighting was provided with overhead metal halide 1000-Watt lamps as necessary. The plants were employed for testing when they reached the second or third true leaf stage.
Treatments consisted of the benzyl ester of 4-amino-3-chloro-5-fluoro-6-(4-chloro-2-fluoro-3-methoxy-phenyl)pyridine-2-carboxylic acid (Compound A), formulated as an SC (suspension concentrate), and a second cereal herbicide alone and in combination.
Measured aliquot of benzyl ester of 4-amino-3-chloro-5-fluoro-6-(4-chloro-2-fluoro-3-methoxy-phenyl)pyridine-2-carboxylic acid (Compound A) was placed in 25 milliliter (mL) glass vials and diluted in a volume of 1.25% (v/v) Agri-dex crop oil concentrated to obtain stock solutions. Compound requirements are based upon a 12 mL application volume at a rate of 187 liters per hectare (L/ha). Spray solutions of the second cereal herbicide and experimental compound mixtures were prepared by adding the stock solutions to the appropriate amount of dilution solution to form 12 mL spray solution with active ingredients in two- and three-way combinations. Formulated compounds were applied to the plant material with an overhead Mandel track sprayer equipped with an 8002E nozzle calibrated to deliver 187 L/ha over an application area of 0.503 square meters (m^2) at a spray height of 18 inches (46 cm) above average plant canopy. Control plants were sprayed in the same manner with the solvent blank.
The treated plants and control plants were placed in a greenhouse as described above and watered by sub-irrigation to prevent wash-off of the test compounds. After 20-22 days, the condition of the test plants as compared with that of the control plants was determined visually and scored on a scale of 0 to 100 percent where 0 corresponds to no injury and 100 corresponds to complete kill.
Colby's equation was used to determine the herbicidal effects expected from the mixtures (Colby, S. R. 1967. Calculation of the synergistic and antagonistic response of herbicide combinations. Weeds 15:20-22.).
The following equation was used to calculate the expected activity of mixtures containing two active ingredients, A and B: Expected=A+B−(A×B/100)

[3] = system: ISCRU (Ischaemum rugosum, saramollagrass); test: Postemergence foliar-applied weed control, direct seeded rice, greenhouse (Example I); type: in vivo, Ischaemum rugosum Salisb.
From the text: as §1
Treatments consisted of the acid or esters of 4-amino-3-chloro-5-fluoro-6-(4-chloro-2-fluoro-3-methoxy-phenyl)pyridine-2-carboxylic acid (Compound A), each formulated as an SC, and various herbicidal components alone and in combination. Forms of compound A were applied on an acid equivalent basis.
Other herbicidal components were applied on an active ingredient basis and included acetolactate synthase (ALS)-inhibiting herbicides (sulfonylurea chemical class) azimsulfuron formulated as Gulliver®, bensulfuron-methyl formulated as Londax® 60DF, cyclosulfamuron (technical material), ethoxysulfuron formulated as Sunrice® 15 WDG, flazasulfuron formulated as Katana®, flucetosulfuron formulated as Sukedachi® 1KG G, foramsulfuron formulated as Option®, imazosulfuron formulated as Brazzos® WG, iodosulfuron-methyl-sodium formulated as Hussar®, metsulfuron-methyl formulated as Lorate®, nicosulfuron formulated as Accent®, orthosulfamuron formulated as Strada® WG, primisulfuron-methyl (technical material), propyrisulfuron formulated as Zeta One®, rimsulfuron formulated as Matrix® WG, sulfometuron-methyl formulated as Oust®, and trifloxysulfuron-sodium formulated as Monument® 75WG.
as §2
For treatments comprised of formulated compounds, measured amounts of compounds were placed individually in 25 mL glass vials and diluted in a volume of 1.25% (v/v) Agri-Dex® crop oil concentrated to obtain 12× stock solutions. […] Application solutions were prepared by adding an appropriate amount of each stock solution (e.g., 1 mL) and diluted to the appropriate final concentrations with the addition of 10 mL of an aqueous mixture of 1.25% (v/v) crop oil concentrate so that the final spray solutions contained 1.25+/−0.05% (v/v) Agrcrop oil concentrate.
For treatments comprised of formulated and technical compounds, weighed amounts of the technical materials were placed individually in 25 mL glass vials and dissolved in a volume of 97:3 v/v acetone/DMSO to obtain 12× stock solutions, and measured amounts of the formulated compounds were placed individually in 25 mL glass vials and diluted in a volume of 1.25% (v/v) crop oil concentrate to obtain 12× stock solutions. […] Application solutions were prepared by adding an appropriate amount of each stock solution (e.g., 1 mL) and diluted to the appropriate final concentrations with the addition of an appropriate amount of an aqueous mixture of 1.5% (v/v) crop oil concentrate so that the final spray solutions contained 1.25% (v/v) crop oil concentrate. […]

For `COCC(=O)OC(c1ncccc1S(=O)(=O)NC(=O)Nc1nc(OC)cc(OC)n1)C(C)F` (stereo not drawn) [Flucetosulfuron, 1-[3-[[[[(4,6-dimethoxy-2-pyrimidinyl)amino]carbonyl]amino]sulfonyl]-2-pyridinyl]-2-fluoropropyl 2-methoxyacetate], the “Visual Weed Control (%) Obs” value ([1]; 0.05 gai/ha) was 95%, the “Visual Weed Control (%) Obs” value ([1]; 0.1 gai/ha) was 50% and the “Visual Weed Control (%) Obs” value ([1]; 0.2 gai/ha) was 30%.
For `COc1c(Cl)ccc(-c2nc(C(=O)OCc3ccccc3)c(Cl)c(N)c2F)c1F` [Compound A Benzyl Ester], the “Weed Control MATCH Obs” value ([2]; Table 54, after 20-22 days, 8.75 gai/ha alone) was 20%, the “Weed Control MATCH Obs” value ([2]; Table 55, after 20-22 days, 8.75 gai/ha alone) was 20% and the “Weed Control MATCH Obs” value ([2]; Table 56, after 20-22 days, 8.75 gai/ha alone) was 20%. For the same compound, the “Weed Control MATCH Obs” value ([2]; Table 57, after 20-22 days, 8.75 gai/ha Compound A Benzyl Ester alone) was 20%, the “Weed Control MATCH Obs” value ([2]; Table 59 (cereal), after 20-22 days, 8.75 gai/ha alone) was 20% and the “Visual Weed Control (%) Obs” value ([3]; 20 DAA, 6 gae/ha) was 30%. The “Visual Weed Control (%) Obs” value ([3]; 20 DAA, 24 gae/ha) was 35%, the “Visual Weed Control (%) Obs” value ([3]; 21 DAA, 8 gae/ha) was 20% and the “Visual Weed Control (%) Obs” value ([3]; 21 DAA, 16 gae/ha) was 0%. For the same compound, the “Visual Weed Control (%) Obs” value ([1]; 4.38 gae/ha) was 40%.
With `COC(=O)c1ccccc1CS(=O)(=O)NC(=O)Nc1nc(OC)cc(OC)n1` [Bensulfuron-methyl, methyl 2-[[[[[(4,6-dimethoxy-2-pyrimidinyl)amino]carbonyl]amino]sulfonyl]methyl]benzoate, reference compound] the “Visual Weed Control (%) Obs” value ([3]; 20 DAA, 70 gai/ha) was 30%.
In the case of `COC(=O)c1ccccc1S(=O)(=O)NC(=O)Nc1nc(C)nc(OC)n1` [Metsulfuron-methyl, methyl 2-[[[[(4-methoxy-6-methyl-1,3,5-triazin-2-yl)amino]carbonyl]amino]sulfonyl]benzoate, reference compound], the “Weed Control MATCH Obs” value ([2]; Table 56, after 20-22 days, 1.1 gai/ha alone) is reported as 89%.

Reference: patent US8871681B2, “Herbicidal compositions comprising 4-amino-3-chloro-5-fluoro-6-(4-chloro-2-fluoro-3-methoxyphenyl) pyridine-2-carboxylic acid or a derivative thereof and certain sulfonylureas” (Dow AgroSciences LLC, priority 2012, dated 2014)
